Laboratory results published in patent publication US6379959B1, “Metalocarboxypeptidase inhibitors and derived molecules used as antitumor agents” (Universitat Autonoma de Barcelona, priority 1996, dated 2002).
Like-named read-outs stand apart in the source and are kept apart here. Positions of bridges follow the written chain, without caps; N, C: chain ends. No end group written: not given here.

Assays:
Assay type in all cases: cell-based
[1] = tested on: human pancreatic adenocarcinoma cell line Capan-1; experiment: Proliferation test with tetrazolium salts, Capan-1 in medium with serum; conditions: 23 days
Description: In this test, with the aim of determining whether the presence of PCI in the culture medium produces some effect on the growth in vitro of the cellular lines, the final amount of cells was evaluated after a specific number of days, in presence and absence of inhibitor. The final number of cells was determined by means of tetrazolium salts (kit EZ4U) which, being added to the cultures, are reduced by mitochondrial enzymes of the cells, producing derivatives of formazan of a different colour. The amount of formed derivatives depends on the number of existing cells.
1. In a culture plate of 96 wells, in 48 of them, 5,000 cells were seed. Of these 48:
In 8 wells (control), 200 μL of full medium (DMEM+10%FBS) were added without PCI. […]
2. The cells were kept in an incubator at 37° C., 87% of relative humidity and 10% of CO2. The medium contained in the wells was changed every 3-4 days. The old medium was sucked out with a Pasteur pipette. Medium free of PCI was added to the control wells and, to the others, a medium with identical concentration of PCI to which they had previously, was also added.
3. After a specific number of days, the number of cells per well was evaluated by means of the following procedure:
To calculate the result of the test, the following was done: the average of the A620 of the blank ones was substracted from the A620 of each well. Immediately after, the result of the previous subtraction, as well as the average of the A450 of the blank ones was substracted from the A450 of each well. The result thus obtained is directly proportional to the amount of cells present in the well. Next, the average and the typical deviation was obtained from the results of the wells which had undergone identical treatment.
The effect of the presence of the PCI can be expressed employing the cell growth percentage in relation to the controls (without PCI) which is easily calculated: [formula]
A proliferation test with indirect determination of the number of cells by means of tetrazolium salts using the cell line Capan-1 was carried out. This is a human pancreatic adenocarcinoma cell line (ATCC nr. HTB-79), established by Fogh, G. et al. (1977) J. Natl. Cancer Inst., 58: 209-214, and Fogh, J. et al. (1977) J. Natl. Cancer Inst., 59: 221-226, from a liver metastasis.
As it has been explained, the cells were cultivated for 23 days, after which the cell growth was evaluated per well by means of tetrazolium salts. The results obtained are expressed in Table 3, where the average, the standard deviation and the standard error of the cell growth in relation to the controls are shown.

[2] = tested on: human pancreatic adenocarcinoma cell line Capan-1; experiment: Cytotoxicity test with BCECF-AM and propydium iodure; conditions: PCI 10-75 μg/mL, 24 h
From the text: The cytotoxicity test is based on the use of two fluorophores, BCECF-AM and propydium iodure. The first one is employed to mark the viable cells because it quickly penetrates into the cellular cytoplasm where it is fragmented by the action of the esterases, becoming a fluorescent molecule. These esterases only being active when the cells are alive. Propydium iodine is a derivative of the phenanthrene which specifically joins the polynucleotide structure of nucleic acids intercalating between their pairs of bases. Due to its ionic structure it cannot penetrate into the live cells but it can do so into the dead ones, labeling DNA and RNA. […]
1. The absorbancy of the plate was read using cytofluor. The cytofluor is a fluorometer especially designed for reading the fluorescence of the cells; it is controlled by computer which makes it possible to employ various filter combinations of excitation-emission at the same time. […] These filters allow us to detect the fluorescence of the two reagents employed for the cytotoxicity test such as BCECF-AM and propydium iodide. This first reading corresponds to the self-fluorescence of the cells, which it will later be deducted from the final value of the fluorescence. […]
3. Afterwards, the absorbancy of the plate was read. This measure corresponds to the total fluorescence.
4. […] Thus, we eliminated the fluorescence that had not been incorporated by the cells. […]

[3] = tested on: human pancreatic adenocarcinoma cell line Panc-1; conditions: SFM, 72 h
[4] = tested on: human pancreatic adenocarcinoma cell line Capan-1; experiment: Growth curve of the cell line Capan-1 in presence or absence of PCI; conditions: for Duplication time: DMEM + 10% FBS (control 85)
Description: The growth curve of the human pancreatic adenocarcinoma cell line Capan-1 was determined by culturing the cells in medium DMEM supplemented with 10% of FBS (see Section 4 ..B.1.). Plates with wells were used, each with a surface of 10 cm^2 (Nunc, Denmark). The number of cells initially placed per well was 1×10^5, and changes of medium were made every four days, adding new PCI in the medium in the case of the cells treated with PCI.
Three growth curves were determined (FIG. 10) in absence of PCI and in presence of PCI, in concentrations of 1 μg/mL and of 10 μg/mL. Initially, 45 replica-wells were placed for each treatment. After 15 days, three of the replica-wells of each treatment were taken and their number of cells counted by means of trypsinization and recount employing hemocytometer (for a description of the technique, see Section 4.B.1.). The results of the tests are shown in Table 13, which presents the duplication times calculated from the data.

PCI: potato carboxypeptidase inhibitor, isoform IIa, obtained by recombinant DNA techniques in E. coli (SEQ ID NO.2) (EQHADPICNKPCKTHDDCSGAWFCQACWNSARTCGPYVG; disulfide 12-27, 18-34, 8-24)
Growth (Percentage in relation to the average of the controls) ([1]; 0.1 µg/mL PCI in the medium, DMEM+10%FBS): 19.4% | Growth (Percentage in relation to the average of the controls) ([1]; 1 µg/mL PCI in the medium): 17.1% | Growth (Percentage in relation to the average of the controls) ([1]; 10 µg/mL PCI in the medium): 50.0% | Growth (Percentage in relation to the average of the controls) ([1]; 50 µg/mL PCI in the medium): 44.8% | Growth (Percentage in relation to the average of the controls) ([1]; 200 µg/mL PCI in the medium): 43.3% | inhibition of the growth ([1]; concentrations of 0.1 and 1 μg/mL): higher than 80% | inhibition of the growth ([1]; concentrations of 10, 50 and 200 μg/mL): ~50% | cell death (propydium iodure fluorescence) [2]: No significant difference in relation to the control group | viability of the cells (BCECF-AM fluorescence) [2]: no decrease of viability being observed | Growth (Percentage in relation to the average of the controls) ([3]; EGF 10 ng/mL + 50 mg/mL wtPCI): 15.81% | Growth (Percentage in relation to the average of the controls) ([3]; Insulin 5 mg/mL + 50 mg/mL wtPCI): 26.34% | density reached by the stationary stage compared with the control cells ([4]; 10 μg/mL of PCI): a half | Duplication time ([4]; Treated with 1 mg/mL): 90 h | Duplication time ([4]; Treated with 10 mg/mL): 130 h
